The text below walks through data of US9951065B2 (Gilead Sciences, Inc., priority 2015, dated 2018).

The assay deals with T1, IDO1 (Homo sapiens, UniProt P14902).
T1 construct: HeLa cells were treated with a test compound in the presence of IFNγ, which induces IDO1 expression; host or cells: H1-HeLa cells, IDO1 induced with IFNγ
T1 sequence (P14902 whole entry): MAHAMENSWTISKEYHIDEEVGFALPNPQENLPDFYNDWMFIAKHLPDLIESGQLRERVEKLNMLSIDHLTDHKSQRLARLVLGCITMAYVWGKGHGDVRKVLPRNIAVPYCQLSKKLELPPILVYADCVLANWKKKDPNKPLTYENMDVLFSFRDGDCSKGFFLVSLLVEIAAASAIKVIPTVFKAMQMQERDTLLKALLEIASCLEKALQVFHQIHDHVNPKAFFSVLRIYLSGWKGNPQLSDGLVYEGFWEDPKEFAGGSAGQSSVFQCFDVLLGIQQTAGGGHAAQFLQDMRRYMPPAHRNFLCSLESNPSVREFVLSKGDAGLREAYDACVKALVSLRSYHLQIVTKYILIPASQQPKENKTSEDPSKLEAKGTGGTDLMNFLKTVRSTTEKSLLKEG
Briefly: Cell-based (HeLa) assay for measurement of IDO1 inhibition (kynurenine levels in supernatant after IFNγ induction). As to conditions: HeLa cells, IFNγ-induced IDO1, kynurenine in supernatant after 48 hour incubation; geometric mean of a minimum of four determinations. Here is the method: Example 509. Cell-Based (HeLa) Assay for Measurement of IDOL Inhibition
To measure IDO1 inhibition in tissue culture, HeLa cells were treated with a test compound in the presence of IFNγ, which induces IDO1 expression. Following incubation, cell supernatants were assayed for kynurenine levels, an indicator of IDO1 activity.
H1-HeLa cells (ATCC #CRL-1958) were seeded in 384-well plates (Greiner #82051-282) at a volume of 50 μL/well in DMEM (Corning #15-018-CM) supplemented with 10% FBS (Corning #35-011-CV) and 1% P/S/G (Corning #30-009-CL) at a density of 1,250 cells/well and incubated overnight at 37° C., 5% CO2/100% humidity. The following day, the test compounds were added in DMSO (0.5% final) at various concentrations, and IDO1 was inducibly expressed by the addition of 50 uL/well of […] of INFγ (Peprotech #300-02) in cell plating media. As a […] control, 50 uL of the cell plating media without IFNγ was added to several wells. Following a 48 hour incubation, the plates were spun down at 1,200 RPM for 5 min at 10° C. 65 μL/well of the supernatant was then transferred to new 384-well plates (Thermo #262160) that contained 10 uL/well of 30% TCA (Sigma #TO699), and the plates were sealed and incubated at 60° C. for 30 min. The plates were then centrifuged for 15 min at 2,000 RPM at 10° C. 40 μL/well of the supernatant was transferred to new 384-well plates (Thermo #262160) and was reacted with 40 μL/well of 2% (w/v) p-dimethlyaminobenzaldehyde (Sigma #156417) in glacial acetic acid (Sigma #A6283). The reaction was incubated at room temperature for 10 min and absorbance at 480 nm was read using a PerkinElmer Envision plate reader.
Data in Table 1 were normalized based on positive (−IFNγ) and negative (+IFNγ) controls and EC50 values were calculated from the fit of the dose response curves to a four-parameter equation. All EC50 values represent geometric mean values of a minimum of four determinations. These assays generally produced results within 2-fold of the reported mean.
The compound `O/N=C(\Nc1ccc(F)c(Cl)c1)c1cc(F)c(F)c2nc(N3CCOCC3)[nH]c12` [Example 32, N-(3-Chloro-4-fluorophenyl)-4,5-difluoro-N′-hydroxy-2-morpholino-1H-benzo-[d]imidazole-7-carboximidamide] displayed an EC50 of 9280 nM.

Compound `CS(=O)(=O)CCNc1nc2c(F)ccc(/C(=N/O)Nc3ccc(F)c(Cl)c3)c2[nH]1` [Example 33, N-(3-Chloro-4-fluorophenyl)-4-fluoro-N′-hydroxy-2-((2-(methylsulfonyl)ethyl)amino)-1H-benzo[d]imidazole-7-carboximidamide] showed an EC50 of 1830 nM.

Regarding `O/N=C(\Nc1ccc(F)c(Cl)c1)c1ccc(F)c2nc(NCCN3CCOCC3)[nH]c12` [Example 34, N-(3-Chloro-4-fluorophenyl)-4-fluoro-N′-hydroxy-2-((2-morpholinoethyl)amino)-1H-benzo[d]imidazole-7-carboximidamide], it took 6740 nM to reach a half-maximal effect (EC50).

As to `CS(=O)(=O)CCNc1nc2c(F)c(F)cc(/C(=N/O)Nc3ccc(F)c(Cl)c3)c2[nH]1` [Example 35, N-(3-Chloro-4-fluorophenyl)-4,5-difluoro-N′-hydroxy-2-((2-(methylsulfonyl)ethyl)amino)-1H-benzo[d]imidazole-7-carboximidamide], the concentration for a half-maximal effect (EC50) came out at 2150 nM.

The compound `O/N=C(\Nc1ccc(F)c(Cl)c1)c1cc(F)c(F)c2nc(NCCN3CCC(F)(F)CC3)[nH]c12` [Example 36, N-(3-Chloro-4-fluorophenyl)-2-((2-(4,4-difluoropiperidin-1-yl)ethyl)amino)-4,5-difluoro-N′-hydroxy-1H-benzo[d]imidazole-7-carboximidamide] yielded an EC50 of 712 nM.

For the compound `CC(CN1CCOCC1)Nc1nc2c(F)c(F)cc(/C(=N/O)Nc3ccc(F)c(Cl)c3)c2[nH]1` (stereo not drawn) [Example 37, N-(3-Chloro-4-fluorophenyl)-4,5-difluoro-N′-hydroxy-2-((1-morpholinopropan-2-yl)amino)-1H-benzo[d]imidazole-7-carboximidamide], the concentration giving a half-maximal response (EC50) worked out at 514 nM.

`CNc1nc2c(F)c(F)cc(/C(=N/O)Nc3ccc(F)c(Cl)c3)c2[nH]1` [Example 38, N-(3-Chloro-4-fluorophenyl)-4,5-difluoro-N′-hydroxy-2-(methylamino)-1H-benzo[d]imidazole-7-carboximidamide]: the EC50 is 607 nM.

On to `CN(C)CCCNc1nc2c(F)c(F)cc(/C(=N/O)Nc3ccc(F)c(Cl)c3)c2[nH]1` [Example 39, N-(3-Chloro-4-fluorophenyl)-2-((3-(dimethylamino)propyl)amino)-4,5-difluoro-N′-hydroxy-1H-benzo[d]imidazole-7-carboximidamide], for which the EC50 came out at 473 nM.

Take `COCCNc1nc2c(F)c(F)cc(/C(=N/O)Nc3ccc(F)c(Cl)c3)c2[nH]1` [Example 40, N-(3-Chloro-4-fluorophenyl)-4,5-difluoro-N′-hydroxy-2-((2-methoxyethyl)amino)-1H-benzo[d]imidazole-7-carboximidamide]: the EC50 amounted to 1520 nM.

`O/N=C(\Nc1ccc(F)c(Cl)c1)c1cc(F)c(F)c2nc(NCCN3CCCC3)[nH]c12` [Example 41, N-(3-Chloro-4-fluorophenyl)-4,5-difluoro-N′-hydroxy-2-((2-(pyrrolidin-1-yl)ethyl)amino)-1H-benzo[d]imidazole-7-carboximidamide] displayed an EC50 of 240 nM.

Consider `CCN(CC)CCNc1nc2c(F)c(F)cc(/C(=N/O)Nc3ccc(F)c(Cl)c3)c2[nH]1` [Example 42, N-(3-Chloro-4-fluorophenyl)-2-((2-(diethylamino)ethyl)amino)-4,5-difluoro-N′-hydroxy-1H-benzo[d]imidazole-7-carboximidamide], for which the EC50 is 247 nM.

On to `CN(C)CCNc1nc2c(F)c(F)cc(/C(=N/O)Nc3ccc(F)c(Cl)c3)c2[nH]1` [Example 43, N-(3-Chloro-4-fluorophenyl)-2-((2-(dimethylamino)ethyl)amino)-4,5-difluoro-N′-hydroxy-1H-benzo[d]imidazole-7-carboximidamide], for which the response was half-maximal at 136 nM (EC50).

`CN1CCCC(c2nc3c(F)c(F)cc(/C(=N/O)Nc4cccc(Cl)c4)c3[nH]2)C1` (stereo not drawn) [Example 44, N-(3-Chlorophenyl)-4,5-difluoro-N′-hydroxy-2-(1-methylpiperidin-3-yl)-1H-benzo[d]imidazole-7-carboximidamide] had a concentration for a half-maximal effect (EC50) of 1650 nM.

As to `COCCCNCc1nc2c(/C(=N/O)Nc3ccc(F)c(Cl)c3)cc(F)c(F)c2[nH]1` [Example 45, N-(3-Chloro-4-fluorophenyl)-6,7-difluoro-N′-hydroxy-2-(((3-methoxypropyl)amino)methyl)-1H-benzo[d]imidazole-4-carboximidamide], a half-maximal effect (EC50) was put at 1320 nM.

For the compound `OCc1nc2c(/C(=N/O)Nc3ccc(F)c(Cl)c3)cc(F)c(F)c2[nH]1` [Example 46, N-(3-Chloro-4-fluorophenyl)-4,5-difluoro-N′-hydroxy-2-(hydroxymethyl)-1H-benzo[d]imidazole-7-carboximidamide], the midpoint of the response, the EC50, lay at 835 nM.

`NCc1nc2c(/C(=N/O)Nc3ccc(F)c(Cl)c3)cc(F)c(F)c2[nH]1` [Example 47, 2-(Aminomethyl)-N-(3-chloro-4-fluorophenyl)-4,5-difluoro-N′-hydroxy-1H-benzo[d]imidazole-7-carboximidamide] displayed an EC50 of 1080 nM.

The compound `CNCc1nc2c(/C(=N/O)Nc3ccc(F)c(Cl)c3)cc(F)c(F)c2[nH]1` [Example 48, N-(3-Chloro-4-fluorophenyl)-4,5-difluoro-N′-hydroxy-2-((methylamino)methyl)-1H-benzo[d]imidazole-7-carboximidamide] displayed an EC50 of 434 nM.

In the case of `O/N=C(\Nc1ccc(F)c(Cl)c1)c1cc(F)c(F)c2[nH]c(CNCC3CC3)nc12` [Example 49, N-(3-Chloro-4-fluorophenyl)-2-(((cyclopropylmethyl)amino)methyl)-4,5-difluoro-N′-hydroxy-1H-benzo[d]imidazole-7-carboximidamide], the EC50 worked out at 1060 nM.

Regarding `CCNCc1nc2c(/C(=N/O)Nc3ccc(F)c(Cl)c3)cc(F)c(F)c2[nH]1` [Example 50, N-(3-Chloro-4-fluorophenyl)-2-((ethylamino)methyl)-6,7-difluoro-N′-hydroxy-1H-benzo[d]imidazole-4-carboximidamide], it took 457 nM to reach a half-maximal effect (EC50).

Turning to `CC(C)NCc1nc2c(/C(=N/O)Nc3ccc(F)c(Cl)c3)cc(F)c(F)c2[nH]1` [Example 51, N-(3-Chloro-4-fluorophenyl)-6,7-difluoro-N′-hydroxy-2-((isopropylamino)methyl)-1H-benzo[d]imidazole-4-carboximidamide], a half-maximal effect (EC50) was put at 566 nM.

`CN(C)Cc1nc2c(/C(=N/O)Nc3ccc(F)c(Cl)c3)cc(F)c(F)c2[nH]1` [Example 52, N-(3-Chloro-4-fluorophenyl)-2-((dimethylamino)methyl)-6,7-difluoro-N′-hydroxy-4H-benzo[d]imidazole-4-carboximidamide] displayed a half-maximal effective concentration (EC50) of 526 nM.

As for `CN(C)CCc1nc2c(/C(=N/O)Nc3ccc(F)c(Cl)c3)cc(F)c(F)c2[nH]1` [Example 53, N-(3-Chloro-4-fluorophenyl)-2-(2-(dimethylamino)ethyl)-6,7-difluoro-N′-hydroxy-1H-benzo[d]imidazole-4-carboximidamide], the response was half-maximal at 916 nM (EC50).

`CN(C)CCc1nc2c(/C(=N/O)Nc3ccc(F)c(Br)c3)cc(F)c(F)c2[nH]1` [Example 54, N-(3-Bromo-4-fluorophenyl)-2-(2-(dimethylamino)ethyl)-6,7-difluoro-N′-hydroxy-1H-benzo[d]imidazole-4-carboximidamide]: the EC50 is 461 nM.

`CN(C)CCc1nc2c(/C(=N/O)Nc3cccc(Br)c3)cc(F)c(F)c2[nH]1` [Example 55, N-(3-Bromophenyl)-2-(2-(dimethylamino)ethyl)-6,7-difluoro-N′-hydroxy-1H-benzo[d]imidazole-4-carboximidamide] came in with an EC50 of 379 nM.

As to `CN(C)CCc1nc2c(/C(=N/O)Nc3cccc(Cl)c3)cc(F)c(F)c2[nH]1` [Example 56, N-(3-Chlorophenyl)-2-(2-(dimethylamino)ethyl)-6,7-difluoro-N′-hydroxy-1H-benzo[d]imidazole-4-carboximidamide], the EC50 worked out at 562 nM.

Compound `CNCCc1nc2c(/C(=N/O)Nc3ccc(F)c(Cl)c3)cc(F)c(F)c2[nH]1` [Example 57, N-(3-Chloro-4-fluorophenyl)-6,7-difluoro-N′-hydroxy-2-(2-(methylamino)ethyl)-1H-benzo[d]imidazole-4-carboximidamide] returned an EC50 of 1090 nM.

For `CCN(CC)CCc1nc2c(F)c(F)cc(/C(=N/O)Nc3ccc(F)c(Cl)c3)c2[nH]1` [Example 58, N-(3-Chloro-4-fluorophenyl)-2-(2-(diethylamino)ethyl)-4,5-difluoro-N′-hydroxy-1H-benzo[d]imidazole-7-carboximidamide], the EC50 was 786 nM.

As usually defined, the EC50 is the concentration needed to bring the measured effect to its halfway point.
